Experimental data: the NIST ThermoML archive (doi:10.1021/acs.jced.5b00152)

Conditions: Liquid; for viscosity: Capillary tube (Ostwald / Ubbelohde) method; for mass density: Vibrating tube method

CCO [ethanol]
Conditions	mass density [kg/m3]	viscosity [mPa·s]
298.15 K, 1022 kPa	785.87	1.086
298.15 K, 3922 kPa	788.69	1.112
298.15 K, 8793 kPa	792.53	1.148
298.15 K, 12491 kPa	795.7	1.175
298.15 K, 17711 kPa	799.91	1.213
298.15 K, 21982 kPa	802.87	1.244
298.15 K, 24097 kPa	804.5	1.26
298.15 K, 26940 kPa	806.36	1.28
298.15 K, 29139 kPa	807.89	1.296
323.15 K, 3237 kPa	766.361	0.711
323.15 K, 9248 kPa	772.358	0.7435
323.15 K, 12839 kPa	775.758	0.7616
323.15 K, 18790 kPa	780.78	0.7928
323.15 K, 23256 kPa	784.532	0.8153
323.15 K, 25042 kPa	786.147	0.8236
323.15 K, 27936 kPa	788.458	0.8367
323.16 K, 626 kPa	763.659	0.6978
323.16 K, 15104 kPa	777.664	0.7732
333.27 K, 16623 kPa	770.196	0.6592
333.28 K, 909 kPa	754.25	0.5872
333.28 K, 1891 kPa	756.361	0.5916
333.28 K, 5093 kPa	758.805	0.6065
333.28 K, 9067 kPa	762.841	0.6251
333.28 K, 12887 kPa	766.568	0.6421
333.28 K, 22108 kPa	775.145	0.684
333.28 K, 25690 kPa	777.944	0.6985
333.28 K, 29272 kPa	780.933	0.7133

CCCCCCCO [heptan-1-ol]
Conditions	mass density, 298.15 K [kg/m3]	mass density, 323.15 K [kg/m3]	viscosity, 298.15 K [mPa·s]	viscosity, 323.15 K [mPa·s]
2002 kPa	819.81	–	5.986	–
2006 kPa	–	802.09	–	2.779
3999 kPa	821.2	–	6.11	–
4003 kPa	–	803.5	–	2.832
6000 kPa	–	804.98	–	2.887
6006 kPa	822.3	–	6.233	–
7993 kPa	–	806.39	–	2.942
8000 kPa	823.7	–	6.359	–
10000 kPa	–	807.79	–	3
10002 kPa	824.8	–	6.487	–
12997 kPa	826.41	–	6.683	–
13006 kPa	–	809.85	–	3.085
15999 kPa	828.31	–	6.883	–
16007 kPa	–	811.88	–	3.173
18995 kPa	831.3	–	7.086	–
19004 kPa	–	813.79	–	3.263
22001 kPa	833.2	–	7.297	–
22008 kPa	–	815.68	–	3.354
25000 kPa	835.1	–	7.511	–
25007 kPa	–	817.57	–	3.446

CCCCCCC [heptane]
Conditions	mass density [kg/m3]	viscosity [mPa·s]
293.25 K, 2103 kPa	685.58	0.4229
293.25 K, 3666 kPa	687.27	0.4317
293.25 K, 6195 kPa	689.52	0.4449
293.25 K, 10385 kPa	693.22	0.4681
293.25 K, 14421 kPa	696.48	0.4907
293.25 K, 17447 kPa	698.88	0.5062
293.25 K, 20472 kPa	701.01	0.5237
293.25 K, 23543 kPa	703.3	0.5407
293.25 K, 26611 kPa	705.5	0.5567
313.07 K, 11204 kPa	678.28	0.3782
313.07 K, 17225 kPa	683.61	0.4049
313.07 K, 20247 kPa	686.13	0.4185
313.07 K, 29805 kPa	693.98	0.4596
313.08 K, 2050 kPa	669.15	0.3388
313.08 K, 4083 kPa	671.15	0.3472
313.08 K, 6733 kPa	673.77	0.359
313.08 K, 14195 kPa	681.03	0.3912
313.08 K, 23266 kPa	688.54	0.4314
313.08 K, 26286 kPa	691.26	0.4449
332.77 K, 4091 kPa	654.57	0.2886
332.78 K, 2084 kPa	652.25	0.2805
332.78 K, 7031 kPa	658.26	0.2994
332.78 K, 11151 kPa	662.67	0.3143
332.78 K, 14177 kPa	665.56	0.3261
332.78 K, 17172 kPa	668.79	0.3367
332.78 K, 20193 kPa	671.47	0.3472
332.78 K, 23214 kPa	674.57	0.3581
332.78 K, 26231 kPa	677.28	0.3689
352.39 K, 2184 kPa	635.33	0.2346
352.39 K, 4102 kPa	637.96	0.2413
352.39 K, 11159 kPa	646.85	0.2635
352.39 K, 14169 kPa	650.4	0.2732
352.39 K, 17199 kPa	653.84	0.283
352.39 K, 29758 kPa	666.6	0.3207
352.4 K, 7146 kPa	641.83	0.2514
352.4 K, 20204 kPa	657.05	0.2922
352.4 K, 23212 kPa	660.04	0.3015
352.4 K, 26228 kPa	663.06	0.3106

CCCCCC [hexane]
Conditions	mass density [kg/m3]	viscosity [mPa·s]
293.22 K, 1999 kPa	661.4	0.3196
293.22 K, 3994 kPa	663.53	0.3287
293.22 K, 5999 kPa	665.43	0.339
293.22 K, 8007 kPa	667.57	0.3483
293.22 K, 22004 kPa	680.38	0.4135
293.22 K, 28004 kPa	685.01	0.4427
293.23 K, 10003 kPa	669.41	0.3576
293.23 K, 13000 kPa	672.26	0.3713
293.23 K, 16006 kPa	675.2	0.3851
293.23 K, 19000 kPa	677.83	0.399
293.23 K, 25002 kPa	682.87	0.428
293.23 K, 30001 kPa	686.72	0.4521
313.1 K, 2005 kPa	643.6	0.2614
313.1 K, 3997 kPa	645.97	0.2702
313.1 K, 5999 kPa	648.24	0.2774
313.1 K, 8000 kPa	650.44	0.2853
313.1 K, 9999 kPa	652.57	0.2934
313.1 K, 12997 kPa	655.73	0.305
313.1 K, 15999 kPa	659	0.3165
313.1 K, 18003 kPa	661.04	0.3243
313.1 K, 21999 kPa	664.77	0.3399
313.1 K, 24998 kPa	667.58	0.3504
313.1 K, 28001 kPa	670.32	0.3631
313.1 K, 30004 kPa	672.03	0.37
333 K, 2004 kPa	624.85	0.2192
333 K, 4002 kPa	627.59	0.226
333 K, 6003 kPa	630.29	0.2328
333 K, 8005 kPa	632.82	0.2396
333 K, 10008 kPa	635.78	0.2467
333 K, 12998 kPa	639.36	0.2565
333 K, 16002 kPa	642.74	0.2667
333 K, 19000 kPa	646.04	0.2766
333 K, 21993 kPa	649.32	0.2863
333 K, 25001 kPa	652.41	0.296
333 K, 28000 kPa	655.31	0.3058
333 K, 30005 kPa	657.29	0.3128
353.14 K, 4001 kPa	608.43	0.1911
353.14 K, 8003 kPa	614.97	0.203
353.14 K, 15997 kPa	625.92	0.2264
353.14 K, 21998 kPa	633.46	0.2438
353.15 K, 2003 kPa	605.15	0.1848
353.15 K, 5997 kPa	611.57	0.197
353.15 K, 10009 kPa	618	0.2091
353.15 K, 13000 kPa	622.08	0.2179
353.15 K, 19000 kPa	629.87	0.2352

CCCCCO [pentan-1-ol]
Conditions	mass density, 298.15 K [kg/m3]	mass density, 323.15 K [kg/m3]	viscosity, 298.15 K [mPa·s]	viscosity, 323.15 K [mPa·s]
1999 kPa	–	794.19	–	1.835
2003 kPa	811.93	–	3.593	–
3999 kPa	813.3	–	3.661	–
4001 kPa	–	795.77	–	1.868
6001 kPa	–	797.32	–	1.903
6003 kPa	814.64	–	3.731	–
8000 kPa	–	798.83	–	1.937
8005 kPa	815.96	–	3.799	–
9998 kPa	–	800.31	–	1.972
10001 kPa	817.26	–	3.867	–
12999 kPa	–	802.47	–	2.025
13000 kPa	819.15	–	3.972	–
16001 kPa	–	804.56	–	2.078
16004 kPa	821	–	4.08	–
19002 kPa	–	806.59	–	2.134
19006 kPa	822.8	–	4.19	–
22000 kPa	824.56	–	4.301	–
22001 kPa	–	808.56	–	2.19
24998 kPa	826.27	–	4.41	–
25002 kPa	–	810.48	–	2.245

O [water]
Conditions	mass density [kg/m3]	viscosity [mPa·s]
293.36 K, 2061 kPa	999.51	0.9917
293.36 K, 4085 kPa	999.98	0.9931
293.37 K, 7118 kPa	1001.28	0.9928
293.37 K, 26278 kPa	1010.35	0.9863
293.38 K, 11158 kPa	1003.59	0.9898
293.38 K, 17210 kPa	1006.18	0.9897
293.38 K, 20234 kPa	1006.98	0.988
293.38 K, 23255 kPa	1008.25	0.9883
313.08 K, 4076 kPa	994.07	0.6535
313.08 K, 7109 kPa	995.47	0.6538
313.08 K, 11150 kPa	996.66	0.6546
313.08 K, 14177 kPa	997.99	0.655
313.08 K, 17203 kPa	999.9	0.6552
313.08 K, 20228 kPa	1000.99	0.6557
313.08 K, 23250 kPa	1001.91	0.6559
313.08 K, 26271 kPa	1003.18	0.6562
313.08 K, 29788 kPa	1004.77	0.6586
313.09 K, 2053 kPa	992.98	0.6538
332.85 K, 14173 kPa	989.5	0.4707
332.85 K, 17195 kPa	990.83	0.4712
332.85 K, 20214 kPa	991.48	0.4725
332.85 K, 26252 kPa	994.06	0.4751
332.86 K, 4081 kPa	984.88	0.4685
332.86 K, 7113 kPa	985.99	0.4685
332.86 K, 11150 kPa	988.22	0.47
352.57 K, 4073 kPa	973.51	0.3574
352.58 K, 2044 kPa	972.64	0.3565
352.58 K, 7107 kPa	975.4	0.3582
352.59 K, 11142 kPa	977	0.3592
352.59 K, 14161 kPa	977.85	0.36
352.6 K, 17181 kPa	979.13	0.361
352.6 K, 20194 kPa	980.96	0.3617
352.6 K, 23203 kPa	982.36	0.3627
352.6 K, 26211 kPa	983.69	0.3638
352.6 K, 29715 kPa	984.92	0.3648
